Data as given in patent US20080009418A1, “Selective Inhibitors” (Alchemia LTD., priority 2004, published 2008).

Assays:
Human Melanocortin (MC4) = biological target: T1, Human Melanocortin (MC4) (Homo sapiens, UniProt P32245); assay: Radioligand binding, human melanocortin MC4 membranes, FlashPlate, [125I]-NDP-αMSH; conditions: compound at 10 μM; [125I]-NDP-αMSH
T1 construct: purchased Perkin Elmer Biosignal
In short: (§1)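 Cloned human receptor membranes were coated onto FlashPlate wells and incubated with radioligand and compound (added from a 0.5 mM DMSO daughter plate) for 1 hour at room temperature in the dark. Scintillation counting gave percent inhibition, with DMSO defining total and reference ligand defining non-specific binding.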

Human μ-opioid (MOP) = biological target: T2, Human μ-opioid (MOP) (Homo sapiens, UniProt P35372); assay: Radioligand binding, human μ-opioid (MOP) membranes, FlashPlate, [3H]-Naloxone; conditions: compound at 10 μM; [3H]-Naloxone
T2 construct: purchased Perkin Elmer Biosignal
T2 sequence (P35372 whole entry): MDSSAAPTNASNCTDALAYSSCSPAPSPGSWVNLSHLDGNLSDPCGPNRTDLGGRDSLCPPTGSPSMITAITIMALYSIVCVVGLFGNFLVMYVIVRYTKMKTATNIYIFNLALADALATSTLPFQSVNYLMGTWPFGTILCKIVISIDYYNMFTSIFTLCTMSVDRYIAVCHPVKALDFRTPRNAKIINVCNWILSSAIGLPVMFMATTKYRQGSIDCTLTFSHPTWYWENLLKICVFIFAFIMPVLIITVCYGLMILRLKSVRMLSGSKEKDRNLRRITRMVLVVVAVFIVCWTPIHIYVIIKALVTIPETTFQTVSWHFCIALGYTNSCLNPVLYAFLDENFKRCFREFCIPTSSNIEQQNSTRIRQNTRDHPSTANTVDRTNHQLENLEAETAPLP
In short: as §1

Human opioid (ORL1) = biological target: T3, Human opioid (ORL1) (Homo sapiens, UniProt P41146); assay: Radioligand binding, human opioid ORL1 membranes, FlashPlate, [125I]-Nociceptin; conditions: compound at 10 μM; [125I]-Nociceptin
T3 construct: purchased Perkin Elmer Biosignal
T3 sequence (P41146 whole entry): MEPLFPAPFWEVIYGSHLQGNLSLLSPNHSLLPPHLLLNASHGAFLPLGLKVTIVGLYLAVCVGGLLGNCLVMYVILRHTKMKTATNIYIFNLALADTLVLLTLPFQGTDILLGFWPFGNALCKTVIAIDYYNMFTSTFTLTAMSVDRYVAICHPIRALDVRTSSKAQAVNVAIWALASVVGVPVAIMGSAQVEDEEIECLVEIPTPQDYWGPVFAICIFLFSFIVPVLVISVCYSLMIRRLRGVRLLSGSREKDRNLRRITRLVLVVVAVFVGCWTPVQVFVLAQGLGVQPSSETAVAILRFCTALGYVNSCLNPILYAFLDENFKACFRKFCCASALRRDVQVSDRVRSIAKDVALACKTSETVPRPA
In short: as §1

Human Melanocortin (MC3) = biological target: T4, Human Melanocortin (MC3) (Homo sapiens, UniProt P41968); assay: Radioligand binding, human melanocortin MC3 membranes, FlashPlate, [125I]-NDP-αMSH; conditions: compound at 10 μM; [125I]-NDP-αMSH
T4 construct: purchased Perkin Elmer Biosignal
T4 sequence (P41968 whole entry): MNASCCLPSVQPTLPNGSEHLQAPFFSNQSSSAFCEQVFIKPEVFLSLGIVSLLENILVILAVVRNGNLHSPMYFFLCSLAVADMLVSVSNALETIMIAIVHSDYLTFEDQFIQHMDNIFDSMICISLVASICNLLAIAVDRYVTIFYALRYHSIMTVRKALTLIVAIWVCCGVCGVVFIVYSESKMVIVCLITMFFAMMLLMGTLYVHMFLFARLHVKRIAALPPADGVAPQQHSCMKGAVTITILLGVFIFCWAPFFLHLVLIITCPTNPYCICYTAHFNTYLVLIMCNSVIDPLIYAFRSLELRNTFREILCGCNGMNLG
In short: as §1

Human melanocortin (MC5) = biological target: T5, Human melanocortin (MC5) (Homo sapiens, UniProt P33032); assay: Radioligand binding, human melanocortin MC5 membranes, FlashPlate, [125I]-NDP-αMSH; conditions: compound at 10 μM; [125I]-NDP-αMSH
T5 construct: purchased Perkin Elmer Biosignal
T5 sequence (P33032 whole entry): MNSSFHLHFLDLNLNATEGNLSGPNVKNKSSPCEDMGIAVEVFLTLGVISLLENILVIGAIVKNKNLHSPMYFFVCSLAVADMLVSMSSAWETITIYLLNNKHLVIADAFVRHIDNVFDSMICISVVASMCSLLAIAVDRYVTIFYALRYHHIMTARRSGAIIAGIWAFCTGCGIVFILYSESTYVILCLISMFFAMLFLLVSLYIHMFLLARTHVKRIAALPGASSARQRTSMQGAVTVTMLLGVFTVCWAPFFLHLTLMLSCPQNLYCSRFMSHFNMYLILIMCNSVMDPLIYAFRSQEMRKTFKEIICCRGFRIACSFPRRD
In short: as §1

Human δ-opioid (DOP) = biological target: T6, Human δ-opioid (DOP) (Homo sapiens, UniProt P41143); assay: Radioligand binding, human δ-opioid (DOP) membranes, FlashPlate, [3H]-Bremazocine; conditions: compound at 10 μM; [3H]-Bremazocine
T6 construct: purchased Perkin Elmer Biosignal
T6 sequence (P41143 whole entry): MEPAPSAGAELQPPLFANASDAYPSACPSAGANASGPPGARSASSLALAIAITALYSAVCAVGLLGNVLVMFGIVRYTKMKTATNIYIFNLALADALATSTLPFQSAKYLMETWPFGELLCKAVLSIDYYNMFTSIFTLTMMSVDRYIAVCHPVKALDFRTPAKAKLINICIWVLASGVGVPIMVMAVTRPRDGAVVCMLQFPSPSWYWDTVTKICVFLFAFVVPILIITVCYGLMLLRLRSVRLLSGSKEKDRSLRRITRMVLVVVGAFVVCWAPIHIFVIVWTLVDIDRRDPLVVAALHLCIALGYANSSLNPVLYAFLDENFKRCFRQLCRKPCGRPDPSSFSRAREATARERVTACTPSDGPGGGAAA
In short: as §1

Human neurokinin (NK1) = biological target: T7, Human neurokinin (NK1) (Homo sapiens, UniProt P25103); assay: Radioligand binding, human neurokinin NK1 membranes, filtration, [125I]-Substance P; conditions: compound at 10 μM; [125I]-Substance P
T7 construct: purchased Perkin Elmer Biosignal
T7 sequence (P25103 whole entry): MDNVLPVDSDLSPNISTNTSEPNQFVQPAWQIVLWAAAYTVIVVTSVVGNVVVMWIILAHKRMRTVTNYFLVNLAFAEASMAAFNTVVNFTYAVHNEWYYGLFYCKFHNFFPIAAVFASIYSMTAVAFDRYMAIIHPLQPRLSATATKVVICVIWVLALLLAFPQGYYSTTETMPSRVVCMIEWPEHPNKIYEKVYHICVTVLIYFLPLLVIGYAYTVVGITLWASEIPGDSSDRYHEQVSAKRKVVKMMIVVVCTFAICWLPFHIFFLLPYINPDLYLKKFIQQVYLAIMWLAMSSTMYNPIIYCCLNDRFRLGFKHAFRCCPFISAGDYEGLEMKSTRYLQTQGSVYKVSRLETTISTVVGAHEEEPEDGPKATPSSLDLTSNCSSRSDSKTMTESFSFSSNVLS
In short: (§2)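 Filtration binding on cloned human receptor membranes (1 Unit/well), [125I]-Substance P for NK1 and [3H]-Diprenorphine for KOP, 1 h at room temperature. Filters PEI-presoaked, washed with cold 50 mM Tris-HCl pH 7.4, counted by scintillation; percent inhibition calculated, reference ligand defining non-specific binding.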

Human κ-Opioid (KOP) = biological target: T8, Human κ-Opioid (KOP) (Homo sapiens, UniProt P41145); assay: Radioligand binding, human κ-opioid (KOP) membranes, filtration, [3H]-Diprenorphine; conditions: compound at 10 μM; [3H]-Diprenorphine
T8 construct: purchased Perkin Elmer Biosignal
T8 sequence (P41145 whole entry): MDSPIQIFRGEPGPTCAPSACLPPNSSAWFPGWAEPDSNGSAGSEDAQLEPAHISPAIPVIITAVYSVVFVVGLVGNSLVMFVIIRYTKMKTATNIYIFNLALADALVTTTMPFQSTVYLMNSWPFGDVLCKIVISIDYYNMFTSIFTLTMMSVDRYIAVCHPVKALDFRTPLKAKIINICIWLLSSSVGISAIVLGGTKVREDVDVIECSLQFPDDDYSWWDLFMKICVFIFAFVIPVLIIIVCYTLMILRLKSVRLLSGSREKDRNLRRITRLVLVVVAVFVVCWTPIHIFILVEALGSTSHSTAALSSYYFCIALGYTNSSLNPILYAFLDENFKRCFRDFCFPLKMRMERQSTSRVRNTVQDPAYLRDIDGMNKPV
In short: as §2

[1] = biological target: T9, Human neuropeptide Y (NPY-Y1) (Homo sapiens, UniProt P25929); assay: Radioligand binding, human neuropeptide Y NPY-Y1 membranes, FlashPlate, [125I]-PYY; conditions: compound at 10 μM; [125I]-PYY
T9 construct: purchased Perkin Elmer Biosignal
T9 sequence (P25929 1-384): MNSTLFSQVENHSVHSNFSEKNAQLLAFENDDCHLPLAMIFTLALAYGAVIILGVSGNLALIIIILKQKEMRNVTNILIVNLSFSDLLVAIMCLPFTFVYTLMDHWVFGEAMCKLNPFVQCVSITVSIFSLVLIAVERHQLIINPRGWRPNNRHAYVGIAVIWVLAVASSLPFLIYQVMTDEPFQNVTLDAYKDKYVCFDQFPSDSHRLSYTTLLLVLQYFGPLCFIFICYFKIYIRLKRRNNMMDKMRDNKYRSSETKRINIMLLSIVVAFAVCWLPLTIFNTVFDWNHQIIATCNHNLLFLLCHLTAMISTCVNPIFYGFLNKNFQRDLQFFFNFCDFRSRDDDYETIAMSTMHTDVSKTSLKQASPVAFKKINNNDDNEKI
In short: as §1

[2] = biological target: T10, Human melanin-concentrating hormone (MCH1) (Homo sapiens, UniProt Q99705); assay: Radioligand binding, human melanin-concentrating hormone MCH1 membranes, FlashPlate, [125I]-S36057; conditions: compound at 10 μM; [125I]-S36057
T10 construct: purchased Perkin Elmer Biosignal
T10 sequence (Q99705 whole entry): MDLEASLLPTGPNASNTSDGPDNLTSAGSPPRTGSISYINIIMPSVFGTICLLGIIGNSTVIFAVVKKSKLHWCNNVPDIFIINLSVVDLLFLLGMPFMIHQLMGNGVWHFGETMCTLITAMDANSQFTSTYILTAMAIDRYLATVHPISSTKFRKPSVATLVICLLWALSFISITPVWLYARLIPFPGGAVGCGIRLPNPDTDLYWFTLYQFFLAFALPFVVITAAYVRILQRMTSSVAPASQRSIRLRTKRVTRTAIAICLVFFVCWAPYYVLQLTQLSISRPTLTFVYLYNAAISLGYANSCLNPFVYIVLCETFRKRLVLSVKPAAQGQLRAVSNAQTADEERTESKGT
In short: as §1

Mouse urotensin (mUR2) = biological target: T11, Mouse urotensin (mUR2) (Mus musculus, UniProt Q8VIH9); assay: Radioligand binding, mouse urotensin mUR2 membranes, FlashPlate, [125I]-Urotensin II; conditions: compound at 10 μM; [125I]-Urotensin II
T11 construct: purchased Perkin Elmer Biosignal
T11 sequence (Q8VIH9 1-385): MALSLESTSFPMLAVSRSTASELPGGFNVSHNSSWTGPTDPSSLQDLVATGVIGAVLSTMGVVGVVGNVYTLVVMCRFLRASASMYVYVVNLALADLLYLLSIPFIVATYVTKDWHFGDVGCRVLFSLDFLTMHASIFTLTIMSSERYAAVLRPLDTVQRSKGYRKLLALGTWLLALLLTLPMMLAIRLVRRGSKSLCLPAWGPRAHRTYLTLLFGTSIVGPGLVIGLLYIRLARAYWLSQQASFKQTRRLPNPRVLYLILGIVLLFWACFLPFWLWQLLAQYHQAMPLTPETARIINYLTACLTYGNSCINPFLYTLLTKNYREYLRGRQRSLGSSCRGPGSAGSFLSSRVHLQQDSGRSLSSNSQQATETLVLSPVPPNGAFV
In short: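 Cloned mouse urotensin (mUR2) receptor membranes from Perkin Elmer Biosignal were immobilized in FlashPlate microplates using a proprietary coating. Each well got 19.5 μl buffer, then 0.5 μl of DMSO, reference ligand, or compound. Adding 5 μl of [125I]-Urotensin II, diluted to 5× final concentration in binding buffer, started binding. Plates were sealed with TopSeal-A and incubated 1 hour at room temperature in the dark. Wells were counted for 30 seconds each on a TopCount after a 60-second delay, and percentage inhibition was calculated.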

T1 sequence (P32245 whole entry): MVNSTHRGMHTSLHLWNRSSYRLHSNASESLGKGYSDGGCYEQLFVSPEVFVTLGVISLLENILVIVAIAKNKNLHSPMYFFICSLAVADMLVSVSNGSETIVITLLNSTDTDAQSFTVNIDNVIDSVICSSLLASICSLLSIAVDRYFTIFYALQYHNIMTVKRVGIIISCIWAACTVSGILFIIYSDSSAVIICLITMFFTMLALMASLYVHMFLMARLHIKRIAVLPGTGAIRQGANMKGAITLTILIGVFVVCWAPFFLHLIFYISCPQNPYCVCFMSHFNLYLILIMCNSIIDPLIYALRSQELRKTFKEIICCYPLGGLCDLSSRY

| SMILES | A4: inhibition of radioligand binding, human melanocortin (MC4) (Human Melanocortin (MC4)) | A7: inhibition of radioligand binding, human μ-opioid (MOP) (Human μ-opioid (MOP)) | A10: inhibition of radioligand binding, human opioid (ORL1) (Human opioid (ORL1)) | A3: inhibition of radioligand binding, human melanocortin (MC3) (Human Melanocortin (MC3)) | A5: inhibition of radioligand binding, human melanocortin (MC5) (Human melanocortin (MC5)) | A1: inhibition of radioligand binding, human δ-opioid (DOP) (Human δ-opioid (DOP)) | A8: inhibition of radioligand binding, human neurokinin (NK1) (Human neurokinin (NK1)) | A2: inhibition of radioligand binding, human κ-opioid (KOP) (Human κ-Opioid (KOP)) | A9: inhibition of radioligand binding, human neuropeptide Y (NPY-Y1) [1] | A6: inhibition of radioligand binding, human melanin-concentrating hormone (MCH1) [2] | A11: inhibition of radioligand binding, mouse urotensin (mUR2) (Mouse urotensin (mUR2)) |
| --- | --- | --- | --- | --- | --- | --- | --- | --- | --- | --- | --- |
| CSC1OC(COCc2ccc(-c3ccccc3)cc2)C(O)C(OCc2ccc3ccccc3c2)C1NC(=O)CCNC(=N)N (stereo not drawn) [compound 314] | − (“−” indicates less than 50% inhibition at 10 μM) | − (“−” indicates less than 50% inhibition at 10 μM) | − (“−” indicates less than 50% inhibition at 10 μM) | − (“−” indicates less than 50% inhibition at 10 μM) | − (“−” indicates less than 50% inhibition at 10 μM) | − (“−” indicates less than 50% inhibition at 10 μM) | + (“+” indicates greater than 50% inhibition at 10 μM) | − (“−” indicates less than 50% inhibition at 10 μM) | − (“−” indicates less than 50% inhibition at 10 μM) | − (“−” indicates less than 50% inhibition at 10 μM) | − (“−” indicates less than 50% inhibition at 10 μM) |
| CSC1OC(COCc2ccc(-c3ccccc3)cc2)C(O)C(OCc2ccc3ccccc3c2)C1NC(=O)CCCN (stereo not drawn) [compound 315] | − (“−” indicates less than 50% inhibition at 10 μM) | − (“−” indicates less than 50% inhibition at 10 μM) | − (“−” indicates less than 50% inhibition at 10 μM) | − (“−” indicates less than 50% inhibition at 10 μM) | − (“−” indicates less than 50% inhibition at 10 μM) | − (“−” indicates less than 50% inhibition at 10 μM) | + (“+” indicates greater than 50% inhibition at 10 μM) | − (“−” indicates less than 50% inhibition at 10 μM) | − (“−” indicates less than 50% inhibition at 10 μM) | − (“−” indicates less than 50% inhibition at 10 μM) | − (“−” indicates less than 50% inhibition at 10 μM) |
| CSC1OC(COCc2ccc3ccccc3c2)C(O)C(OCc2ccc3ccccc3c2)C1NC(=O)CN (stereo not drawn) [compound 316] | + (“+” indicates greater than 50% inhibition at 10 μM) | − (“−” indicates less than 50% inhibition at 10 μM) | − (“−” indicates less than 50% inhibition at 10 μM) | − (“−” indicates less than 50% inhibition at 10 μM) | − (“−” indicates less than 50% inhibition at 10 μM) | − (“−” indicates less than 50% inhibition at 10 μM) | + (“+” indicates greater than 50% inhibition at 10 μM) | − (“−” indicates less than 50% inhibition at 10 μM) | − (“−” indicates less than 50% inhibition at 10 μM) | − (“−” indicates less than 50% inhibition at 10 μM) | − (“−” indicates less than 50% inhibition at 10 μM) |
